These results are taken from patent US20220226298A1, “GPR40 AGONISTS” (Kallyope, Inc., priority 2019, published 2022).

As a reminder, the EC50 is the midpoint of the concentration-response curve. Lower therefore signals a more potent agent.

A value given as a limit tells only on which side of the number the result lay.

Test system in the first data set: not listed separately
The data set can be described thus: In vivo plasma levels in mice. Particulars: mouse, oral, 30 mg/kg; male C57BL/6J mice, dose 30 mpk, plasma concentration of test article (parent) 30 min post dose; read-out: 30 min Exposure: Parent. The protocol: Male C57BL/6J mice 10-12 weeks old were acclimated to dosing (e.g., oral gavage) 2-3 times prior to the study. On the day of the study, food was removed for 5-6 hours, then the mice were dosed with test article or vehicle (e.g., by oral gavage at a volume of 10 mL/kg). Animals were euthanized with carbon dioxide typically 30 min post dose. Blood was collected via cardiac puncture for measurement of plasma concentrations of test article (parent) or metabolite resulting from ester cleavage.
`COc1cc(-c2ccc(C(=O)Oc3cccc([C@H](C4CC4)[C@@](C)(F)C(=O)O)c3)cc2CN(C(C)C)C(C)C)c(F)cn1` [Compound 36, (2R,3S)-3-cyclopropyl-3-(3-((3-((diisopropylamino)methyl)-4-(5-fluoro-2-methoxypyridin-4-yl)benzoyl)oxy)phenyl)-2-fluoro-2-methylpropanoic acid]: the concentration at 30 min is below 5 nM. Same read-out and setting: for `COc1cc(-c2ccc(C(=O)Oc3cccc([C@H](C4CC4)[C@H](C)C(=O)O)c3)cc2CN(C(C)C)C(C)C)c(F)cn1` [Compound 26, (2S,3R)-3-cyclopropyl-3-(3-((3-((diisopropylamino)methyl)-4-(5-fluoro-2-methoxypyridin-4-yl)benzoyl)oxy)phenyl)-2-methylpropanoic acid] the value was below 2 nM; for `COc1cc(-c2ccc(C(=O)Oc3cccc([C@@H](CC(=O)O)C4CC4)c3)cc2CN(C(C)C)C(C)C)c(F)cn1` [Compound 15, (S)-3-cyclopropyl-3-(3-((3-((diisopropylamino)methyl)-4-(5-fluoro-2-methoxypyridin-4-yl)benzoyl)oxy)phenyl)propanoic acid], below 2 nM.

In another data set the target is T1, human GPR40 (Homo sapiens, UniProt O14842).
T1 construct: host or cells: CHO-K1
T1 sequence (O14842 whole entry): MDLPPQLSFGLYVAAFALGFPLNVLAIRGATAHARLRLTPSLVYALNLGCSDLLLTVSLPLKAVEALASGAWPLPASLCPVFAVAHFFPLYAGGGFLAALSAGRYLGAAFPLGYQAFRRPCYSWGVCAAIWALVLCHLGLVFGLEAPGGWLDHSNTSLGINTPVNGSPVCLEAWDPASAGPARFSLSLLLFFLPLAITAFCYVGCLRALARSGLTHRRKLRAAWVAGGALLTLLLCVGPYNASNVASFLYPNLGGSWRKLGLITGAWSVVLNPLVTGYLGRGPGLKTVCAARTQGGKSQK
As to the kind of experiment: Inositol phosphate accumulation assay (IP1 HTRF) in CHO-K1 cells expressing human GPR40. The conditions noted are these: 90 min stimulation. It counts as cell-based. The procedure:
CHO-KI cells expressing human GPR40 were purchased from DiscoverX (95-1005C2). HEK293 cells expressing mouse FFAR1 were prepared using a mouse FFAR1 carrying plasmid purchased from OriGene Technologies (MR222997). The cells were transfected using Lipofectamine 2000 using manufacturer instructions and stable cell line was established from a single cell using geneticine selection. Assay ready frozen (ARF) cells were prepared and used throughout the study.
The assay was performed in a 384-well plate format using IP1 assay kit from Cis-Bio. ARF cells expressing FFAR1 (mouse and human) were thawed, washed and then plated in the appropriate medium (F12 based medium for CHO hFFAR1 and DMEM based medium for HEK293 mFFAR1—both were supplemented with 10% FBS and penicillin/streptomycin). 20 μL of 3.5×10^5 cells/mL were plated on a Poly D-Lysine coated 384-well white plate. The cells were then incubated for 16 hr at 37° C./5% CO2. After 16 hr the medium was removed and 15 μL of stimulation buffer containing the test compounds was added to the cells. The plates were then incubated for 90 min at 37° C./5% CO2. 5 μL of detection buffer (prepared as described in the IP-one kit) was added to each well and the plates were incubated at RT for 1 hr.
[…] was measured using ClarioSTAR plate reader, calculating the ratio between emissions at 665 nm and 620 nm (HTRF ratio). HTRF ratio for positive (Max) and negative (Min) controls were used to normalize HTRF data and generate values for % activity. EC50 and Max activity values were determined using a standard 4-parameter fit.
A general note: Time-resolved FRET reads energy transfer from a long-lived donor to a nearby acceptor.
Regarding `COc1cc(-c2ccc(C(=O)Oc3cccc([C@H](C4CC4)[C@@](C)(F)C(=O)O)c3)cc2CN(C(C)C)C(C)C)c(F)cn1` [Compound 36, (2R,3S)-3-cyclopropyl-3-(3-((3-((diisopropylamino)methyl)-4-(5-fluoro-2-methoxypyridin-4-yl)benzoyl)oxy)phenyl)-2-fluoro-2-methylpropanoic acid], the concentration for a half-maximal effect (EC50) was at most 10 nM. Still for that read-out and setting: for `COc1cc(-c2ccc(C(=O)Oc3cccc([C@H](C4CC4)[C@H](C)C(=O)O)c3)cc2CN(C(C)C)C(C)C)c(F)cn1` [Compound 26, (2S,3R)-3-cyclopropyl-3-(3-((3-((diisopropylamino)methyl)-4-(5-fluoro-2-methoxypyridin-4-yl)benzoyl)oxy)phenyl)-2-methylpropanoic acid] the value was at most 10 nM. The same measure, in the same setting: for `COc1cc(-c2ccc(C(=O)Oc3cccc(C(CP(C)(=O)O)C4CC4)c3)cc2CN(C(C)C)C(C)C)c(F)cn1` (stereo not shown) [Compound 66, (2-cyclopropyl-2-(3-((3-((diisopropylamino)methyl)-4-(5-fluoro-2-methoxypyridin-4-yl)benzoyl)oxy)phenyl)ethyl)(methyl)phosphinic acid] the value was above 500 nM; for `COc1cc(-c2cc(C)c(OC(=O)c3cccc([C@H](C4CC4)[C@H](C)C(=O)O)c3)cc2CN(C(C)C)C(C)C)c(F)cn1` [Compound 61], at most 10 nM; for `CCN(Cc1cc(C(=O)Oc2cccc([C@H](C3CC3)[C@H](C)C(=O)O)c2)ccc1-c1cc(OC)ncc1F)C(C)C` [Compound 34, (2S,3R)-3-cyclopropyl-3-(3-((3-((ethyl(isopropyl)amino)methyl)-4-(5-fluoro-2-methoxypyridin-4-yl)benzoyl)oxy)phenyl)-2-methylpropanoic acid], at most 10 nM. Molecule `Cc1cc(-c2cc(O)ncc2F)c(CN(C(C)C)C(C)C)cc1C(=O)Oc1cccc([C@H](C2CC2)[C@@](C)(F)C(=O)O)c1` [Compound 64, (2R,3S)-3-cyclopropyl-3-(3-((5-((diisopropylamino)methyl)-4-(5-fluoro-2-hydroxypyridin-4-yl)-2-methylbenzoyl)oxy)phenyl)-2-fluoro-2-methylpropanoic acid] returned an EC50 above 500 nM.

In the case of `CC(c1cc(C(F)(F)F)ccc1C(F)(F)F)N1CC(C)(C(=O)Oc2cccc([C@@H](CC(=O)O)C3CC3)c2)C1` (stereo partly shown) [Compound 12], the EC50 lay within 10 to 100 nM.

`COc1cc(-c2ccc(C(=O)Oc3cccc([C@@H](CC(=O)O)C4CC4)c3)c(F)c2)ccn1` [Compound 17] came in with an EC50 of 100 to 500 nM. `COc1cc(-c2ccc(C(=O)Oc3cccc([C@@H](CC(=O)O)C4CC4)c3)cc2)c(F)cn1` [Compound 3]: the EC50 lay within 10 to 100 nM. On the same count and under the same terms, for `COc1cc(-c2ccc(C(=O)Oc3cccc([C@@H](CC(=O)O)C4CC4)c3)cc2CN(C(C)C)C(C)C)c(F)cn1` [Compound 15, (S)-3-cyclopropyl-3-(3-((3-((diisopropylamino)methyl)-4-(5-fluoro-2-methoxypyridin-4-yl)benzoyl)oxy)phenyl)propanoic acid] the value was at most 10 nM; for `CC(c1cc(C(F)(F)F)ccc1C(F)(F)F)N1CCC(OC(=O)c2cccc([C@@H](CC(=O)O)C3CC3)c2)CC1` (stereo partly drawn) [Compound 46, (3S)-3-(3-(((1-(1-(2,5-bis(trifluoromethyl)phenyl)ethyl)piperidin-4-yl)oxy)carbonyl)phenyl)-3-cyclopropylpropanoic acid], above 500 nM. Still for that read-out and setting: the same measure for `COc1cc(-c2ccc(OC(=O)c3cccc([C@H](C4CC4)[C@H](C)C(=O)O)c3)c(CN(C(C)C)C(C)C)c2)c(F)cn1` [Compound 55]: at most 10 nM. Still for that read-out and setting: for `CC(c1cc(C(F)(F)F)ccc1C(F)(F)F)N1CC[C@H](OC(=O)c2cccc([C@@H](CC(=O)O)C3CC3)c2)C1` (stereo partly shown) [Compound 49] the value was above 500 nM; for `COc1cc(-c2cc(C)c(C(=O)Oc3cccc([C@@H](CC(=O)O)C4CC4)c3)cc2CN(C(C)C)C(C)C)c(F)cn1` [Compound 19], 10 to 100 nM; for `COc1cc(-c2cc(C)c(C(=O)Oc3cccc(C(CP(C)(=O)O)C4CC4)c3)cc2CN(C(C)C)C(C)C)c(F)cn1` (stereo not shown) [Compound 70, (2-cyclopropyl-2-(3-((5-((diisopropylamino)methyl)-4-(5-fluoro-2-methoxypyridin-4-yl)-2-methylbenzoyl)oxy)phenyl)ethyl)(methyl)phosphinic acid], above 500 nM. For the molecule `COc1cc(-c2cc(F)c(C(=O)Oc3cccc([C@@H](CC(=O)O)C4CC4)c3)cc2CN(C(C)C)C(C)C)ccn1` [Compound 16, (S)-3-cyclopropyl-3-(3-((5-((diisopropylamino)methyl)-2-fluoro-4-(2-methoxypyridin-4-yl)benzoyl)oxy)phenyl)propanoic acid], the EC50 is at most 10 nM. `CCN(Cc1cc(C(=O)Oc2cccc([C@H](C3CC3)[C@@](C)(F)C(=O)O)c2)ccc1-c1cc(OC)ccc1F)C(C)C` [Compound 38] yielded an EC50 of at most 10 nM. Molecule `COc1cc(-c2cc(F)c(C(=O)Oc3cccc([C@H](C4CC4)[C@H](C)C(=O)O)c3)cc2CN(C(C)C)C(C)C)ccn1` [Compound 24] registered an EC50 of at most 10 nM. In the case of `COc1cc(-c2ccc(C(=O)Oc3cccc([C@H](C4CC4)[C@H](C)C(=O)O)c3)cc2)c(F)cn1` [Compound 25], the EC50 was at most 10 nM.
